Test results as given in PMC9781958, “Next-Generation Heterocyclic Electrophiles as Small-Molecule Covalent MurA Inhibitors” (Pharmaceuticals, 2022).
Read-outs that look alike come from different tables or passages of the source.

What was measured:
[1] = biological target: T1, E. coli MurA (UDP-N-acetylglucosamine 1-carboxyvinyltransferase, EC:2.5.1.7) (Escherichia coli, UniProt P0A749); assay: MurA inhibitory assay (colorimetric malachite green method); type: biochemical; set-up: inferred from IMAC purification with imidazole elution; made in house; host or cells: Escherichia coli NiCo21(DE3); details: for IC50 [μM] MurA: Figure 1, methylated library, 30 min preincubation; for remaining activity at 100 µM: 0.5 h, read-out: RA% @ 100 μM MurA 30 min preincubation
T1 sequence (P0A749 whole entry): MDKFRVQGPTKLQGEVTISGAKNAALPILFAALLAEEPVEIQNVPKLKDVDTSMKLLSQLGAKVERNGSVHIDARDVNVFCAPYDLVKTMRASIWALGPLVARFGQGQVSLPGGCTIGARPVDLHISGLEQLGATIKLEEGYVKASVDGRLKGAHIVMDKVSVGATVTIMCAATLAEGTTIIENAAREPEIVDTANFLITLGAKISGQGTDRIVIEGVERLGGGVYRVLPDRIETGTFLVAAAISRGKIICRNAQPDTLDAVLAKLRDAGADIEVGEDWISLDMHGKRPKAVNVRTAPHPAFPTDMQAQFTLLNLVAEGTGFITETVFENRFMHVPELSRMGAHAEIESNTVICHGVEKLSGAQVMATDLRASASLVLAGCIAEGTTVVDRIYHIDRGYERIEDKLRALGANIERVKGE
Experimental: Expression and purification of E. coli MurA (UDP-N-acetylglucosamine 1-carboxyvinyltransferase, EC:2.5.1.7) was performed according to the known procedure. Briefly, the MurA plasmid was used to transform chemically competent Escherichia coli NiCo21(DE3) (New England Biolabs, Ipswich, MA, USA). The transformant was cultured at 37 °C and 250 rpm in LB broth. Expression was induced by addition of 1 mM IPTG and cultured for an additional 3 h. Cells were harvested by centrifugation (3000× g for 10 min at 4 °C), and cell pellets were stored at −80 °C until purification. Cell pellets were resuspended in buffer 50 mM Tris (pH 8), 150 mM NaCl, and 10 % glycerol and lysed on ice by sonication. Cell debris was removed by centrifugation for 30 min (16,000× g, 4 °C, repeated twice). The lysate was loaded onto a HiTrap 1 mL IMAC HP column (Cytiva, Marlborough, MA, USA). The column was washed with buffer containing 50 mM imidazole with 20 column volumes, and the protein was eluted with buffer containing 250 mM imidazole. The eluted MurA was exchanged into proprietary buffer (50 mM Tris (pH 8), 150 mM NaCl, 10 % glycerol).
The inhibition of the MurA enzyme was monitored using the colorimetric malachite green method in which orthophosphate generated during the reaction is detected. The assay was performed in 96-well microplates with a final volume of 50 μL. The MurA enzyme was preincubated with the substrate UNAG (UDP-N-acetylglucosamine, Sigma, St. Louis, MO, USA) and compound for 30 min at 37 °C. […] After incubation for 15 min at 37 °C, the enzyme reaction was ended by adding Biomol® reagent (100 µL), and the absorbance was measured at 650 nm after 5 min using a microplate reader (Synergy H4, BioTek Instruments, Inc., Winooski, VT, USA). All of the experiments were run in duplicate. […] IC50 values were determined by measuring residual activities at 7 different compound concentrations and calculated using GraphPad Prism (GraphPad Software, San Diego, CA, USA).

MurA = MurA (Escherichia coli, UniProt P0A749); assay: MurA covalent labelling, intact MS; type: binding, E. coli; details: 5 mM fragment, 37 °C, 60 min (Figure S1)
Sequence of MurA (P0A749 whole entry, the tested form may be a part): as the sequence (P0A749 whole entry) above
Experimental: The covalent labelling procedure was conducted as described earlier with slight modifications. First, 42 μM stock solution of MurA in 20 mM HEPES at pH 7.2–7.4 with 1 mM DTT (dithiothreitol, Sigma) was filtered through a G25 desalting column, and the medium was changed to 50 mM Tris with 0.005% Triton X-100 at pH 8.0. For the activation of the enzyme, 1 mg UNAG was added as a solid to reach 40 mM concentration, and the mixture was incubated at 37 °C for 30 min. Fragments were added from a 100 mM DMSO stock diluted in the labelling solution to 5 mM. The incubation was continued at 37 °C for an additional 60 min. After the labelling, the mixture was purified on a G25 desalting column.
The molecular weights of the conjugates were identified using a Triple-TOF 5600+ hybrid Q-TOF LC/MS/MS system (Sciex, Singapore, Woodlands) equipped with a Duo Spray Ion Source coupled with a Shimadzu Prominence LC20 UFLC (Shimadzu, Kyoto, Japan) system consisting of a binary pump, an autosampler, and a thermostated column compartment. Data acquisition and processing were performed using Analyst TF software version 1.7.1 (AB Sciex Instruments, Redwood City, CA, USA). Chromatographic separation was achieved on a Thermo BetaBasic C8 (50 mm × 2.1 mm, 3 μm, 150 Å) HPLC column. […]

[2] = NMR-based single-point GSH reactivity assay; type: physicochemical; details: pH 7.4, 1H NMR
Experimental: For the NMR assay, a 500 mM D2O stock solution was first prepared for each fragment along with an 800 mM D2O stock solution of GSH. Thereafter, a 5 mM electrophilic standard solution was prepared by adding 20 μL of stock solution to a 2 mL 100 mM potassium hydrogen phosphate/sodium hydrogen phosphate buffer solution (pH 7.4). A total of 0.5 mL of this electrophilic standard solution was placed in an NMR tube, and then the ^1H NMR was recorded. The peak values obtained during the measurement were considered the zero-point measurement or reference peaks of the reactivity study. For the reactivity measurement, 20 μL of the fragment stock solution was added to 1980 μL phosphate buffer solution (pH 7.4) along with 20 μL of GSH stock solution (final concentration = […] GSH and 5 mM fragment). The contents were vortexed until homogenization and were transferred to an NMR tube. The resulting mixture was analyzed by ^1H NMR measurements after 15 and 30 min, and 4 and 24 h. The AUC (area under the curve) values were determined via integration of the corresponding peaks in the NMR spectra.

[3] = biological target: T1, E. coli MurA (UDP-N-acetylglucosamine 1-carboxyvinyltransferase, EC:2.5.1.7); details: read-out: MurA IC50 (µM) Non-Methylated; first-generation non-methylated heterocycles; cited from earlier work
[4] = Table 1, methylated heterocycles, read-out: MurA IC50 (µM) Methylated

Compound: C[n+]1ccccc1Cl [A1+]
- IC50 [1]: 51.6 µM

Compound: C[n+]1ccccc1I [A3+]
- IC50 [1]: 15.5 µM

Compound: C#Cc1cccc[n+]1C [A6+]
- IC50 [1]: 50 µM

Compound: C[n+]1ccc(I)cc1 [C3+]
- IC50 [μM] MurA [1]: single-digit micromolar
- IC50 [1, 4]: 4.5 µM
- covalent labelling of MurA by intact MS (MurA): single and double labelling on MurA

Compound: C#Cc1cc[n+](C)cc1 [C6+]
- IC50 [1, 4]: 64.7 µM

Compound: C[n+]1cccnc1Cl [D1+]
- remaining activity at 100 µM [1]: 99.1%

Compound: C[n+]1cccnc1Br [D2+]
- remaining activity at 100 µM [1]: 98.2%

Compound: C[n+]1cccnc1I [D3+]
- IC50 [μM] MurA [1]: single-digit micromolar
- IC50 [1, 4]: 2.99 µM
- fold increase in MurA inhibitory potency of methylated versus non-methylated pair ([1]; from IC50 values of Table 1): 100 fold

Compound: C#Cc1nccc[n+]1C [D6+]
- Single point GSH reactivity (% conversion in 15 min, 16 equiv. GSH) [2]: 100%
- remaining activity at 100 µM [1]: 6.7%

Compound: C#Cc1cnc[n+](C)c1 [F6+]
- remaining activity at 100 µM [1]: 77.8%

Compound: Cn1cc[n+](C)c1I [H3+]
- Single point GSH reactivity (% conversion in 15 min, 16 equiv. GSH) [2]: 100%
- remaining activity at 100 µM [1]: 10.4%
- IC50 [1, 4]: 10.2 µM

Compound: C[n+]1ccoc1I [N3+]
- Single point GSH reactivity (% conversion in 15 min, 16 equiv. GSH) [2]: 100%
- remaining activity at 100 µM [1]: 1.2%

Compound: C[n+]1ccsc1Br [R2+]
- remaining activity at 100 µM [1]: 42.8%

Compound: C[C@@H]1O[C@@H]1P(=O)(O)O [fosfomycin]
- IC50 [3]: 0.25 ± 0.01 µM
